Source: article PMC12591170, “Glabridin‐Gold(I) Complex as a Novel Immunomodulatory Agent Targeting TrxR and MAPK Pathways for Synergistic Enhancement of Antitumor Immunity” (Advanced Science, 2025)

Columns and labels:
[1] = tested on: PD-L1; experiment: In vivo PD-L1 expression in tumor tissue; set-up: species or system C57BL/6 mice; conditions: western blot, 13 days of treatment
[2] = Stability analysis by 1H NMR; format: physicochemical
Protocol: 5 mM of complex 6d was incubated with DMSO‐d6 or the mixed solution (DMSO‐d6 /D2O = 9:1) or the same mixed solution with 5 mM of GSH for different times (0 – 72 h), and the ^1H NMR spectra were acquired. The stability of AF was determined by the same method.

[3] = tested on: HepG2 cells; experiment: ROS levels assay (DHE, DCFH-DA); format: cell-based, human; conditions: HepG2, 6 h, DHE and DCFH-DA probes
Protocol: HepG2 cells were seeded in 12‐well plate (5 × 10^4 cells per well). 4 mM N‐acetylcysteine (NAC) was applied for 1 h pretreatment. DMF (0.1%), AF (4 µM) or different concentrations of 6d (2, 4, 8 µM) were added in the wells for 6 h incubation. 10 µM DHE or DCFH‐DA (dissolved in DMEM) probes were applied for 30 min staining. The cells were photographed by the fluorescence microscopy after washing twice.

[4] = Solubility by UV absorbance; format: physicochemical; conditions: PBS: DMF = 200:1, 298K
Protocol: Weigh a certain amount of 6d, dissolve it in a PBS: DMF = 200:1 solution, and mix to obtain the high‐concentration solution. Then dilute the original solution to prepare solutions of different concentrations. The ultraviolet absorbance values at the maximum absorption wavelength (237 nm) were measured in sequence, and the standard curve was plotted (Figure S40, Supporting Information). Prepare the saturated 6d solution by the same method. After centrifugation, take the supernatant and dilute it 7 times.

[5] = tested on: MEK1/2; experiment: CETSA and ITDR assay, MEK1/2; format: binding, human; conditions: HepG2 proteins, 8 µM, ITDR at 78 °C
Protocol: (§1) The treated HepG2 cells in 10 cm culture dishes were collected and washed with PBS. The collected cells were repeatedly frozen and thawed for 3 times by liquid nitrogen and 37 °C water bath. Then, proteins were isolated by centrifugation. The isolated proteins were divided into different tubes and incubated with same concentration of 6d at different temperature. Western blot was applied for CETSA by analyzing the band intensity of different temperature groups.
(§2) The temperature, which results in significant band differences between 6d and control group, was selected for ITDR assay. The isolated proteins were divided into different tubes and incubated with different concentration of 6d at same temperature. The binding between 6d and target protein was assessed by analyzing the band intensity of different concentration groups.

[6] = biological target: T1, TrxR (Homo sapiens, UniProt Q16881); experiment: Intracellular TrxR activity (kit, probe) and TrxR expression in HepG2; format: cell-based
T1 construct: endogenous in cells; host or cells: HepG2
T1 sequence (Q16881 151-649 limits assumed): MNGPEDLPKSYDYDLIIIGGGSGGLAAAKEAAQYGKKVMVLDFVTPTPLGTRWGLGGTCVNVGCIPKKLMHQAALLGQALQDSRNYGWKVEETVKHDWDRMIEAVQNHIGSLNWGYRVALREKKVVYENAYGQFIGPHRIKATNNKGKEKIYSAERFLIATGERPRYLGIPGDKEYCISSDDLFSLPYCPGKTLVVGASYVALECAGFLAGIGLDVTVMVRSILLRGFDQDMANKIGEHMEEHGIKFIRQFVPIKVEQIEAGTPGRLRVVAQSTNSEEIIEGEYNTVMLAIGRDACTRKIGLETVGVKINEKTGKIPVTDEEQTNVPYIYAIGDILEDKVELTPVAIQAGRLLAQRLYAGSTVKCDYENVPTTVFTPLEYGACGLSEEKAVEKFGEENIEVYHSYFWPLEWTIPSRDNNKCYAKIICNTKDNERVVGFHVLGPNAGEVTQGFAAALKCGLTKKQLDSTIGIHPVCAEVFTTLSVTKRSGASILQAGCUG
Protocol: 1 × 10^6 HepG2 cells were cultured in 6 cm culture dishes, and treated with DMF (0.1%), AF (4 µM) or different concentrations of 6d (2, 4, 8 µM) after cell adhesion. 24 h later, the intracellular TrxR activity was analyzed by the TrxR activity detection kit.
In addition, intracellular TrxR activity was detected by TrxR probe. 5 × 10^4 HepG2 cells were seeded in 12‐well plate. After 24 h, the complete medium was removed, and the each well was washed twice by phosphate buffer saline (PBS). 10 µM TrxR probe (dissolved in PBS) was added for 1 h incubation. Then, the probe was removed, and washing twice was performed by PBS. The fluorescence microscopy was applied to capture the cell images under the channel of FITC.
HepG2 cells were incubated in 6 cm culture dishes and treated with different complexes. The treated cells were lysed with lysis buffer (RIPA:PMSF:phosphatase inhibitor:protease inhibitor = 100:1:1:1). The lysed cells were further broken by sonication, and proteins were isolated by centrifugation. The protein concentrations were detected by BCA assay. 10% SDS PAGE gel was usually applied to separate the different kDa of proteins, and more than 200 kDa of proteins were separated using 8% SDS PAGE gel. After seperation, proteins were transferred onto polyvinylidene difluoride (PVDF) membranes. […] The target proteins’ bands were detected by the enhanced chemiluminescence (ECL) procedure.

[7] = tested on: purified TrxR; experiment: Purified TrxR activity assay (DTNB); format: biochemical; conditions: 0.625-20 µM
Protocol: Different concentrations of complex 6d solution and 1.8 U purified TrxR were added to the wells (25 µL per well separately). Consequently, the reaction solution (20 mg mL^−1 BSA, 500 mM EDTA‐2Na, and 40 mg mL^−1 NADPH, diluted in a 1:1 mixture of PBS and water) was added to the 96 wells (225 µL per well). Finally, 25 mg mL^−1 DTNB solution was added (25 µL per well) and OD values were immediately measured at 405 nm. The linear growth at 405 nm was calculated to show the purified TrxR activity. Final concentrations of complex 6d were 0.625, 1.25, 2.5, 5, 10, 20 µM.

[8] = biological target: T1, TrxR; experiment: CETSA and ITDR assay, TrxR; format: binding; conditions: HepG2 proteins, 8 µM, ITDR at 78 °C
Protocol: as §1, §2

[9] = tested on: Hepa1-6 tumors; experiment: In vivo antitumor assay, Hepa1-6 tumors; set-up: species or system C57BL/6 mice
Protocol: All mice were 6–8 weeks old males and procured from Hangzhou Medical College, located in Hangzhou, China. […] 2 × 10^6 Hepa1‐6 cells in 100 µL DMEM were subcutaneously seeded in underarms of C57BL/6 mice. […] Meanwhile, the mice weights and tumor volume were recorded, and the calculation formula of tumor volume was Volume = Width^2 × Length/2. After 13 days, all mice were sacrificed for collection of tumors, hearts, livers, spleens, lungs and kidneys. Collagenase IV (1 mg mL^−1) and DNase I (1 µg mL^−1) were applied to digest a part of the tumor tissue into cell suspension, and lysis buffer was used to remove red blood cells. The prepared cells above were stained with antibodies (anti‐CD3e‐FITC, and anti‐CD8a‐PE; anti‐CD11c‐APC, anti‐CD80‐PE, and anti‐CD86‐FITC; anti‐CD45‐Percp, anti‐CD11b‐APC, and anti‐Ly‐6G/Ly‐6C(Gr‐1)‐FITC; anti‐CD11b‐APC, anti‐CD206‐PE, and CD86‐FITC). CD3^+CD8^+ T cells, CD80^+CD86^+ DCs, CD11b^+Gr‐1^+ MDSCs, CD206^−CD86^+ M1‐type macrophages and CD206^+CD86^− M2‐type macrophages were analyzed by flow cytometry. Then, another part of tumor tissues were fixed with 4% paraformaldehyde, embedded in paraffin, cut into slices and stained with antibodies for immunofluorescence and immunohistochemistry analysis.

## CCn1ccn(CCCCCOc2ccc([C@@H]3COc4c(ccc5c4C=CC(C)(C)O5)C3)c(OCCCCCn3ccn(CC)[c]3=[Au][Br])c2)[c]1=[Au][Br] [6d]
[1]
  PD-L1 expression in tumor tissue: inhibited
[2]; 5 mM complex, DMSO-d6/D2O 9:1 containing GSH (5 mM)
  time after which 1H NMR spectra began to change / showed new peaks: 12 h
[2]; DMSO-d6, over 72 h
  stability by 1H NMR: remained stable
[2]; DMSO-d6/D2O (v1/v2 = 9:1), over 72 h
  stability by 1H NMR: remained stable
[3]
  ROS level: elevated ROS level
[4]
  solubility: 108 µg/mL
[5]
  binding to MEK1/2 (CETSA, ITDR): significant binding
[6]; HepG2, 24 h
  TrxR expression level (western blot): did not downregulate TrxR expression levels
[6]; HepG2, 24 h, 2, 4, 8 µM, TrxR probe and activity assay kit
  intracellular TrxR activity: suppressed TrxR activity
[7]
  purified TrxR activity: suppressed TrxR activity
[8]
  binding to TrxR (CETSA, ITDR): significant binding
[9]; after 11 days of treatment, 5 mg kg^−1 i.p. every two days
  tumor volume growth vs model group: significant reduction in tumor volume growth
[9]; after 13 days, 6d and OXA 5 mg kg^−1, GLA 10 mg kg^−1, i.p. every two days
  tumor growth vs model group: significant tumor growth inhibition
